Experimental data taken from US20120053148A1, “INHIBITORS OF HEPATITIS C VIRUS” (GILEAD SCIENCES, INC., priority 2010, published 2012).
Like-named read-outs stand apart in the source and are kept apart here.

Key:
HCV Replicon IB = assay: HCV replicon assay in Huh-7 cells, genotype 1b (Rluc luciferase readout); assay type: cell-based, hepatitis C virus; conditions: Hepatitis C virus; for inhibition at 10 µM: 72 h, Huh-7 HCV replicon cells, read-out: % inhibition @ 10 μM HCV Replicon IB; for EC50: Huh-7, 72 h, read-out: EC50_HCV1B_
HCV Replicon IA = assay: HCV replicon assay in Huh-7 cells, genotype 1a; assay type: cell-based; conditions: Hepatitis C virus, 72 h, Huh-7 HCV replicon cells, 3 days
[1] = HCV1B replicon, Huh-7 cells, 3 days

Structure (SMILES)	inhibition at 10 µM (HCV Replicon IB; 3 days)	inhibition at 10 µM (HCV Replicon IA)	EC50 (HCV Replicon IB; [1])	EC50 (HCV Replicon IB)
C[C@@H](NC(=O)c1cc(O)c2cc(-c3cn[nH]c3)cc(C(F)(F)F)c2n1)c1ccccc1 (single isomer, unassigned) [Compound 18]	55.8%	55.3%		
O=C(NCc1ccccc1)c1cc(O)c2cc(-c3cn[nH]c3)cc(C(F)(F)F)c2n1 [Compound 5]	99.2%	99.2%		
O=C(NCc1cccs1)c1cc(O)c2cc(-c3ccoc3)cc(C(F)(F)F)c2n1 [Compound 7]	99.8%	99.2%		
O=C(NCc1cncs1)c1cc(O)c2cc(-c3cn[nH]c3)cc(C(F)(F)F)c2n1 [Compound 8]	94%	98.8%		
O=C(NCc1nccs1)c1cc(O)c2cc(-c3cn[nH]c3)cc(C(F)(F)F)c2n1 [Compound 9]	98.5%	98.1%		
O=C(NCc1cocn1)c1cc(O)c2cc(-c3cn[nH]c3)cc(C(F)(F)F)c2n1 [Compound 10]	74.3%	80.7%		
O=C(NCc1cccnc1)c1cc(O)c2cc(-c3cn[nH]c3)cc(C(F)(F)F)c2n1 [Compound 11]	66.1%	63.2%		
O=C(NCc1ccccn1)c1cc(O)c2cc(-c3cn[nH]c3)cc(C(F)(F)F)c2n1 [Compound 12]	99.2%	98.2%		
O=C(NCc1ccncc1)c1cc(O)c2cc(-c3cn[nH]c3)cc(C(F)(F)F)c2n1 [Compound 13]	20.7%	43.4%		
O=C(NCc1ccc(Cl)s1)c1cc(O)c2cc(-c3cc[nH]n3)cc(C(F)(F)F)c2n1 [Compound 14]	68.6%	84.2%		
O=C(NCc1ccncn1)c1cc(O)c2cc(-c3cn[nH]c3)cc(C(F)(F)F)c2n1 [Compound 15]	47.3%	59.3%		
O=C(NCCc1ccccc1)c1cc(O)c2cc(-c3cn[nH]c3)cc(C(F)(F)F)c2n1 [Compound 16]	96.7%	93%		
Cc1cccnc1CNC(=O)c1cc(O)c2cc(-c3cn[nH]c3)cc(C(F)(F)F)c2n1 [Compound 17]	96.4%	98.3%		
O=C(Nc1ccccc1)c1cc(O)c2cc(-c3cn[nH]c3)cc(C(F)(F)F)c2n1 [Compound 19]	71.1%	98.5%		
CC(NC(=O)c1cc(O)c2cc(-c3cn[nH]c3)cc(C(F)(F)F)c2n1)c1ccccn1 (stereo not shown) [Compound 20]	89%	86.1%		
O=C(NCc1ccc(Cl)s1)c1cc(O)c2cc(-c3ccoc3)cc(C(F)(F)F)c2n1 [Compound 23]	99.4%	99.9%		
O=C(NCc1cccs1)c1cc(Cl)c2cc(-c3ccoc3)cc(C(F)(F)F)c2n1 [Compound 25]	99.7%	98.7%		
COc1cc(C(=O)NCc2cccs2)nc2c(C(F)(F)F)cc(-c3ccoc3)cc12 [Compound 27]	80.3%	65.5%		
Cc1cc(C(=O)NCc2cccs2)nc2c(C(F)(F)F)cc(-c3ccoc3)cc12 [Compound 28]	100%	99.8%		
O=C(c1cc(O)c2cc(-c3ccoc3)cc(C(F)(F)F)c2n1)N1CC=C(c2ccccc2)CC1 [Compound 29]	37.7%	87.4%		

Structure (SMILES)	inhibition at 10 µM (HCV Replicon IB; 3 days)	inhibition at 10 µM (HCV Replicon IA)	EC50 (HCV Replicon IB; [1])	EC50 (HCV Replicon IB)
O=C(c1cc(O)c2cc(-c3ccoc3)cc(C(F)(F)F)c2n1)N1CCC(c2ccc(F)cc2)CC1 [Compound 30]	74.9%	95.3%		
O=C(c1cc(O)c2cc(-c3ccoc3)cc(C(F)(F)F)c2n1)N1CCC(c2cccc(F)c2)CC1 [Compound 31]	58.1%	98.1%		
O=C(NCc1cccs1)c1cc(O)c2cc(-c3ccccc3)cc(C(F)(F)F)c2n1 [Compound 34]	98.3%	97.8%		
O=C(NCc1cccs1)c1cc(O)c2cc(-c3cc[nH]n3)cc(C(F)(F)F)c2n1 [Compound 35]	94.5%	94.2%		
O=C(NCc1cccs1)c1cc(O)c2cc(-c3cn[nH]c3)cc(C(F)(F)F)c2n1 [Compound 36]	99.4%	99.3%		
Nc1cc(O)c2cc(-c3ccccc3)cc(C(F)(F)F)c2n1 [Compound 39]	65%	92.5%		
O=C(Cc1cccs1)Nc1cc(O)c2cc(-c3ccccc3)cc(C(F)(F)F)c2n1 [Compound 40]	97.6%	99.7%		
O=C(NCc1cccs1)c1nc(O)c2cc(-c3ccccc3)cc(C(F)(F)F)c2n1 [Compound 47, 4-oxo-6-phenyl-8-trifluoromethyl-3,4-dihydro-quinazoline-2-carboxylic acid (thiophen-2-ylmethyl)-amide]	99.8%	99.7%		
O=C(NCc1cccs1)c1nc(O)c2cc(-c3ccoc3)cc(C(F)(F)F)c2n1 [Compound 48]	99.9%	99.4%		
O=C(NCc1cccs1)c1nc(O)c2cc(-c3cn[nH]c3)cc(C(F)(F)F)c2n1 [Compound 49]	99%	99.7%		
Nc1nc(C(=O)NCc2cccs2)nc2c(C(F)(F)F)cc(-c3ccccc3)cc12 [Compound 51]	100%	100%		
CNc1nc(C(=O)NCc2cccs2)nc2c(C(F)(F)F)cc(-c3ccccc3)cc12 [Compound 52]	100%	99.6%		
O=C(NCc1cccs1)c1nc(N2CCCC2)c2cc(-c3ccccc3)cc(C(F)(F)F)c2n1 [Compound 53]	86.2%	91.4%		
Oc1cc(-c2nnc(Nc3ccccc3)o2)nc2c(C(F)(F)F)cc(-c3ccccc3)cc12 [Compound 54]	98.7%	97.9%		
O=C(NCc1cccs1)c1cc(O)c2cc(-c3ccccc3)c(F)c(C(F)(F)F)c2n1 [Compound 59]	97.2%	92.7%		
O=C(NCc1cccs1)c1cc(O)c2c(Cl)c(-c3ccccc3)cc(C(F)(F)F)c2n1 [Compound 64]	88.2%	79.2%		
O=C(NCc1cccs1)c1cc(Cl)c2cc(-c3ccccc3)cc(C(F)(F)F)c2n1 [Compound 65]	99.5%	97.5%		
Nc1cc(C(=O)NCc2cccs2)nc2c(C(F)(F)F)cc(-c3ccccc3)cc12 [Compound 66]	99.9%	99.9%		
O=C(NCc1ccccn1)c1cc(Cl)c2cc(-c3ccccc3)cc(C(F)(F)F)c2n1 [Compound 67]	97.8%	96.9%		
Nc1cc(C(=O)NCc2ccccn2)nc2c(C(F)(F)F)cc(-c3ccccc3)cc12 [Compound 68]	99.7%	99.9%		

Structure (SMILES)	inhibition at 10 µM (HCV Replicon IB; 3 days)	inhibition at 10 µM (HCV Replicon IA)	EC50 (HCV Replicon IB; [1])	EC50 (HCV Replicon IB)
O=C(NCc1ccccn1)c1cc(O)c2cc(-c3ccccc3F)cc(C(F)(F)F)c2n1 [Compound 70]	82%	69.1%		
CSC(F)(F)Oc1cc(C(C)(C)C)c2nc(-c3nnc(N[C@H]4C[C@](O)(CF)C4)o3)cc(C)c2c1 [Compound 530]			2.81 nM	
Cc1cc(-c2nnc(NCC3OCCO3)o2)nc2c(C(C)(C)C)cc(OCC3CC3)cc12 [Compound 532]				41.2 nM
Cc1cc(-c2nnc(NCC3OCCO3)o2)nc2c(C(C)(C)C)cc(OCC3OCCO3)cc12 [Compound 533]			306 nM	
Cc1cc(-c2nnc(N[C@H]3C[C@@H](O)C3)o2)nc2c(C(C)(C)C)cc(OCC(C)C)cc12 [Compound 534]				154 nM
Cc1cc(-c2nnc(N[C@H]3C[C@@H](O)C3)o2)nc2c(C(C)(C)C)cc(OCCF)cc12 [Compound 535]			2.54 nM	
Cc1cc(-c2nnc(N[C@H]3C[C@@H](O)C3)o2)nc2c(C(C)(C)C)cc(OCC(C)(C)O)cc12 [Compound 536]				31.4 nM
Cc1cc(-c2nnc(Nc3cccnc3)o2)nc2c(C(C)(C)C)cc(OCC(C)(C)O)cc12 [Compound 537]			69.1 nM	
Cc1cc(-c2nnc(NCC3OCCO3)o2)nc2c(OC(F)(F)F)cc(OCC(F)(F)F)cc12 [Compound 539]			4.12 nM	
Cc1cc(-c2nnc(NCC3OCCO3)o2)nc2c(C3(C)OCCO3)cc(C3CC3)cc12 [Compound 540]			36.6 nM	
CC(=O)c1cc(C2CC2)cc2c(C)cc(-c3nnc(NCC4OCCO4)o3)nc12 [Compound 541]			18.6 nM	
Cc1cc(-c2nnc(NCC3OCCO3)o2)nc2c(C(C)(C)O)cc(C3CC3)cc12 [Compound 542]			43.8 nM	
CCC(C)(O)c1cc(C2CC2)cc2c(C)cc(-c3nnc(NCC4OCCO4)o3)nc12 (stereo not shown) [Compound 543]			155 nM	
Cc1cc(-c2nnc(NCC3OCCO3)o2)nc2c(C3(C)SCCS3)cc(C3CC3)cc12 [Compound 544]			46.7 nM	
COC(C)(C)c1cc(C2CC2)cc2c(C)cc(-c3nnc(NCC4OCCO4)o3)nc12 [Compound 545]			7.68 nM	
Cc1cc(-c2nnc(NCC3OCCO3)o2)nc2c(C(C)(C)F)cc(C3CC3)cc12 [Compound 546]			7.48 nM	
Cc1cc(-c2nnc(NCC3OCCO3)o2)nc2c(S(C)(=O)=O)cc(C3CC3)cc12 [Compound 547]			185 nM	
Cc1cc(-c2nnc(NCC3OCCO3)o2)nc2c(OC(C)(C)C)cc(C3CC3)cc12 [Compound 548]			37.1 nM	
Cc1cc(C(=O)NCc2cnccn2)nc2c(-c3ccccc3)cc(C3CC3)cc12 [Compound 549]			65.5 nM	
